Source: patent publication US20220232869A1, “Steviol Glycoside Sweeteners with Improved Flavor Profiles” (The Coca-Cola Company, priority 2015, published 2022)

Assay: Sensory evaluation of 5 Brix and 10 Brix acidified water beverages by 15 panelists
Format: in vivo
Set-up: Astringency / Acidity / Sweet Aftertaste / Bitter Aftertaste / Overall Liking / Sweetness / Bitterness: scale not given here
Details: panel score
Description: 5 Brix and 10 Brix beverages were prepared by combining purified water containing 303 ppm citric acid and a sweetener. The 5 Brix beverages contained one of the following sweeteners: (i) 5% (wt/wt) sugar, (ii) 200 ppm A95 or (iii) 200 ppm of a 70 wt % Reb D/30 wt % Reb M blend. The 10 Brix beverages contained one of the following sweeteners: (i) 10% (wt/wt) sugar, (ii) 900 ppm A95 or (iii) 900 ppm of a 70 wt % Reb D/30wt % Reb M blend.
The beverages were served at room temperature in 2 oz clear plastic sample cups. 15 panelists evaluated the beverages for various tastes and flavors. Prior to sample evaluation, all panelists rinsed their palate with warm water. The assessors were instructed to take a sip of each beverage and rate the mouth feel and taste/flavor characteristics. 15 seconds after ingestion panelists were instructed to rate sweetness linger and aftertaste. Between samples evaluation a 1 minute rest period was allowed during which they rinsed their palate with warm water and 0.25% NaCl solution.
The various tastes and flavors measured in the evaluation are defined as follows: […]

[1] = 5 brix target, 5% sugar, 200 ppm A95 or 200 ppm blend
[2] = 10 brix target, 10% sugar, 900 ppm A95 or 900 ppm blend

OC[C@H]1O[C@@](CO)(O[C@H]2O[C@H](CO)[C@@H](O)[C@H](O)[C@H]2O)[C@@H](O)[C@@H]1O [Sugar]
Acidity [1]: 0.99 | Astringency [1]: 0.84 | Bitter Aftertaste [1]: 0.33 | Bitterness [1]: 0.75 | Off-Note (Metallic/Licorice) [1]: 0.52 | Overall Liking [1]: 4.96 | Sweet Aftertaste [1]: 0.56 | Sweetness [1]: 4.91 | Acidity [2]: 1.08 | Astringency [2]: 0.92 | Bitter Aftertaste [2]: 0.37 | Bitterness [2]: 0.55 | Off-Note (Metallic/Licorice) [2]: 0.51 | Overall Liking [2]: 6.34 | Sweet Aftertaste [2]: 1.08 | Sweetness [2]: 8.45
